Values after ≈ are worked out from the molar mass of the structure shown.
What was measured:
[1] = tested on: Plasmodium falciparum chloroquine resistant (W2); assay: Antimalarial test, tritiated hypoxanthine incorporation, chloroquine resistant clone W2; type: cell-based; conditions: W2 clone, chloroquine resistant, 1 parasitic cycle (45h), bracket = uncertainty in %, read-out: 50% inhibitory concentration followed by uncertainty about the value expressed in percentage
Experimental: (§1) Screenings of the compound according to the present invention (1f, 1h, 1i) and their isomers (1a, 1c, 1d)on strains of Plasmodium falciparum sensitive (3D7) and chloroquine resistant (W2) were realized.
(§2) The Clones of W2 and 3D7 were grown. […] Melfloquine (MQ) at the same concentrations and chloroquine (CQ) at the concentrations adapted to each clone were used as the Controls. 8 negative controls were distributed on each plate.
(§3) Then, the molecules to be tested were diluted extemporaneously in the above preparation of the plates. The growth medium was deposited after drying plates. The study was initiated when the growth medium was at the ring stage and then stopped after 1 parasitic cycle (45h).
(§4) The activity was calculated by using the Pk-Fit software on all the experimental points obtained for each molecule (except the highest concentration). The results shown in table 5 are expressed in nM and correspond to calculate a 50% inhibitory concentration followed by un certainty about the value expressed in percentage. Table 5. The biological effect of the compounds on Plasmodium falciparum

[2] = tested on: SAAM 95; assay: Antibacterial test, MIC by CLSI broth dilution; type: cell-based, Staphylococcus aureus; conditions: SAAM 95, clinical strain resistant to methicillin; 18 to 24 h at 37°C
Experimental: (§5) The minimum inhibitory concentrations (MICs) were determined according to the recommendations of the Clinical and Laboratory Standards Institute (CLSI)^[27]. […] After incubation for 18 to 24 h (48 h for Enterococcus faecalis) at 37°C, the MIC was determined as the product concentration of the first well with no visual signs of bacterial growth (no disorder in the well). […] Table6. The antibacterial effects of the compounds

[3] = tested on: SAAM 98; assay: Antibacterial test, MIC by CLSI broth dilution; type: cell-based, Staphylococcus aureus; conditions: SAAM 98, clinical strain resistant to methicillin; 18 to 24 h at 37°C
Experimental: as §5

[4] = tested on: SAAM 69; assay: Antibacterial test, MIC by CLSI broth dilution; type: cell-based, Staphylococcus aureus; conditions: SAAM 69, clinical strain resistant to methicillin; 18 to 24 h at 37°C
Experimental: as §5

[5] = tested on: SAAM 86; assay: Antibacterial test, MIC by CLSI broth dilution; type: cell-based, Staphylococcus aureus; conditions: SAAM 86, clinical strain resistant to methicillin; 18 to 24 h at 37°C
Experimental: as §5

[6] = tested on: SAAM 12; assay: Antibacterial test, MIC by CLSI broth dilution; type: cell-based, Staphylococcus aureus; conditions: SAAM 12, clinical strain resistant to methicillin; 18 to 24 h at 37°C
Experimental: as §5

[7] = tested on: SAAM 27; assay: Antibacterial test, MIC by CLSI broth dilution; type: cell-based, Staphylococcus aureus; conditions: SAAM 27, clinical strain resistant to methicillin; 18 to 24 h at 37°C
Experimental: as §5

[8] = tested on: SAAM 64; assay: Antibacterial test, MIC by CLSI broth dilution; type: cell-based, Staphylococcus aureus; conditions: SAAM 64, clinical strain resistant to methicillin; 18 to 24 h at 37°C
Experimental: as §5

[9] = tested on: SAAM 51; assay: Antibacterial test, MIC by CLSI broth dilution; type: cell-based, Staphylococcus aureus; conditions: SAAM 51, clinical strain resistant to methicillin; 18 to 24 h at 37°C
Experimental: as §5

[10] = tested on: P. aeruginosa DSM 1117; assay: Antibacterial test, MIC by CLSI broth dilution; type: cell-based; conditions: 18 to 24 h at 37°C, Mueller-Hinton
Experimental: as §5

[11] = tested on: S. aureus CIP 103429; assay: Antibacterial test, MIC by CLSI broth dilution; type: cell-based; conditions: 18 to 24 h at 37°C, Mueller-Hinton
Experimental: as §5

[12] = tested on: E. coli DSM 1103; assay: Antibacterial test, MIC by CLSI broth dilution; type: cell-based; conditions: 18 to 24 h at 37°C, Mueller-Hinton
Experimental: as §5

[13] = tested on: E. faecalis CIP 103214; assay: Antibacterial test, MIC by CLSI broth dilution; type: cell-based, Enterococcus faecalis; conditions: 48 h at 37°C, Mueller-Hinton
Experimental: as §5

[14] = tested on: Plasmodium falciparum sensitive (3D7); assay: Antimalarial test, tritiated hypoxanthine incorporation, sensitive clone 3D7; type: cell-based; conditions: 3D7 clone, sensitive, 1 parasitic cycle (45h), bracket = uncertainty in %, read-out: 50% inhibitory concentration followed by uncertainty about the value expressed in percentage
Experimental: as §1, §2, §3, §4

Structure (SMILES)	IC50 [1]	minimum inhibitory concentrations (MICs) [2]	minimum inhibitory concentrations (MICs) [3]	minimum inhibitory concentrations (MICs) [4]	minimum inhibitory concentrations (MICs) [5]	minimum inhibitory concentrations (MICs) [6]	minimum inhibitory concentrations (MICs) [7]	minimum inhibitory concentrations (MICs) [8]	minimum inhibitory concentrations (MICs) [9]	minimum inhibitory concentrations (MICs) [10]	minimum inhibitory concentrations (MICs) [11]	minimum inhibitory concentrations (MICs) [12]	minimum inhibitory concentrations (MICs) [13]	IC50 [14]
CCCCCNC[C@H](O)c1cc(C(F)(F)F)nc2c(C(F)(F)F)cccc12 [Compound 1c, (R)-1-(2,8-bis(trifluoromethyl)quinolin-4-yl)-2-(pentylamino)ethanol]	38.2 nM	8 µg/mL (≈ 20.3 µM)	16 µg/mL (≈ 40.6 µM)	8 µg/mL (≈ 20.3 µM)	16 µg/mL (≈ 40.6 µM)	8 µg/mL (≈ 20.3 µM)	8 µg/mL (≈ 20.3 µM)	16 µg/mL (≈ 40.6 µM)	8 µg/mL (≈ 20.3 µM)	>128 µg/mL	16 to 32 µg/mL	32 µg/mL (≈ 81.1 µM)	16 to 32 µg/mL	74.7 nM
CCCCCCNC[C@H](O)c1cc(C(F)(F)F)nc2c(C(F)(F)F)cccc12 [Compound 1d, (R)-1-(2,8-bis(trifluoromethyl)quinolin-4-yl)-2-(hexylamino)ethanol]	142 nM	4 µg/mL (≈ 9.79 µM)	4 µg/mL (≈ 9.79 µM)	4 µg/mL (≈ 9.79 µM)	4 µg/mL (≈ 9.79 µM)	4 µg/mL (≈ 9.79 µM)	4 µg/mL (≈ 9.79 µM)	4 µg/mL (≈ 9.79 µM)	4 µg/mL (≈ 9.79 µM)	>128 µg/mL	4 to 8 µg/mL	16 µg/mL (≈ 39.2 µM)	4 to 8 µg/mL	205 nM
O[C@H](CNCc1ccccc1)c1cc(C(F)(F)F)nc2c(C(F)(F)F)cccc12 [Compound 1f, (S)-2-(benzylamino)-1-(2,8-bis(trifluoromethyl)quinolin-4-yl)ethanol]	19.1 nM	4 µg/mL (≈ 9.65 µM)	8 µg/mL (≈ 19.3 µM)	8 µg/mL (≈ 19.3 µM)	8 µg/mL (≈ 19.3 µM)	4 µg/mL (≈ 9.65 µM)	4 µg/mL (≈ 9.65 µM)	>128 µg/mL	4 µg/mL (≈ 9.65 µM)	>128 µg/mL	4 to 8 µg/mL	>128 µg/mL	8 µg/mL (≈ 19.3 µM)	35.1 nM
CCCCCNC[C@@H](O)c1cc(C(F)(F)F)nc2c(C(F)(F)F)cccc12 [Compound 1h, (S)-1-(2,8-bis(trifluoromethyl)quinolin-4-yl)-2-(pentylamino)ethanol]	6.98 nM	8 µg/mL (≈ 20.3 µM)	16 µg/mL (≈ 40.6 µM)	8 µg/mL (≈ 20.3 µM)	16 µg/mL (≈ 40.6 µM)	8 µg/mL (≈ 20.3 µM)	8 µg/mL (≈ 20.3 µM)	16 µg/mL (≈ 40.6 µM)	8 µg/mL (≈ 20.3 µM)	>128 µg/mL	16 to 32 µg/mL	16 µg/mL (≈ 40.6 µM)	16 to 32 µg/mL	8.33 nM
CCCCCCNC[C@@H](O)c1cc(C(F)(F)F)nc2c(C(F)(F)F)cccc12 [Compound 1i, (S)-1-(2,8-bis(trifluoromethyl)quinolin-4-yl)-2-(hexylamino)ethanol]	9.4 nM	2 µg/mL (≈ 4.9 µM)	8 µg/mL (≈ 19.6 µM)	4 µg/mL (≈ 9.79 µM)	8 µg/mL (≈ 19.6 µM)	2 µg/mL (≈ 4.9 µM)	2 µg/mL (≈ 4.9 µM)	4 µg/mL (≈ 9.79 µM)	2 µg/mL (≈ 4.9 µM)	>128 µg/mL	4 to 8 µg/mL	>128 µg/mL	4 to 8 µg/mL	14.5 nM
